Results taken from patent US20070128217A1 (priority 2003, published 2007).

Columns and labels:
[1] = system: antibodies in sera from SARS patients (sera 1a, 1b, 2, 6, 37, 62, London, SARS-yellow, SARS-green); assay type: binding, human; set-up: Binding of serum 6 to linear peptides of protein X1 of SARS-CoV Urbani / Binding of serum 37 to linear peptides of protein X1 of SARS-CoV Urbani / Binding of serum 6 to looped/cyclic peptide (PEPSCAN-ELISA) / Binding of serum 37 to looped/cyclic peptide (PEPSCAN-ELISA) / Binding of serum 37 to looped/cyclic peptides of protein X1 of SARS-CoV Urbani / Binding of serum 6 to linear peptides of protein X2 / Binding of serum 37 to linear peptides of protein X2 / Binding of serum 37 to looped/cyclic peptides of protein X2 of SARS-CoV Urbani / Binding of serum 6 to linear peptides of protein M of SARS-CoV Urbani / Binding of serum 37 to linear peptides of protein M of SARS-CoV Urbani / Binding of serum 6 to looped/cyclic peptides of protein M of SARS-CoV Urbani / Binding of serum 37 to looped/cyclic peptides of protein M of SARS-CoV Urbani / Binding of serum 6 to linear peptides of protein X3 of SARS-CoV Urbani / Binding of serum 37 to linear peptides of protein X3 of SARS-CoV Urbani / Binding of serum 37 to looped/cyclic peptides of protein X3 of SARS-CoV Urbani / Binding of serum 6 to linear peptides of protein X4 of SARS-CoV Urbani / Binding of serum 37 to linear peptides of protein X4 of SARS-CoV Urbani / Binding of serum 37 to looped/cyclic peptides of protein X4 of SARS-CoV Urbani / Binding of serum 6 to linear peptides of protein X5 of SARS-CoV Urbani / Binding of serum 37 to linear peptides of protein X5 of SARS-CoV Urbani / Binding of serum 37 to looped/cyclic peptides of protein X5 of SARS-CoV Urbani / Binding of serum 6 to linear peptides of protein N of SARS-CoV Urbani / Binding of serum 37 to linear peptides of protein N of SARS-CoV Urbani / Binding of serum 6 to linear peptide (PEPSCAN-ELISA) / Binding of serum 1a to looped/cyclic peptides of protein N of SARS-CoV Urbani / Binding of serum 1b to looped/cyclic peptides of protein N of SARS-CoV Urbani / Binding of serum 2 to looped/cyclic peptides of protein N of SARS-CoV Urbani / Binding of serum 6 to looped/cyclic peptides of protein N of SARS-CoV Urbani / Binding of serum 37 to looped/cyclic peptides of protein N of SARS-CoV Urbani / Binding of serum 62 to looped/cyclic peptides of protein N of SARS-CoV Urbani / Binding of serum London to looped/cyclic peptides of protein N of SARS-CoV Urbani / Binding of serum SARS-green to looped/cyclic peptides of protein N of SARS-CoV Urbani: unit not given here
[2] = system: control sera (pooled serum of ten healthy LUMC hospital workers; commercial negative donor pooled serum from the Dutch bloodbank); assay type: binding, human; set-up: Binding of Control serum LUMC to linear peptides / Binding of Control serum Blood-bank to linear peptides / Binding of Control serum LUMC to looped peptides / Binding of Control Serum Blood-Bank to Looped peptides / Binding of Control serum LUMC to linear peptides of the protein M of SARS-CoV Urbani / Binding of Control serum Blood-bank to linear peptides of the protein M of SARS-CoV Urbani / Binding of Control serum LUMC to looped peptides of the protein M of SARS-CoV Urbani / Binding of Control Serum Blood-Bank to Looped peptides of the protein M of SARS-CoV Urbani: unit not given here
[3] = system: recombinant human anti-SARS-CoV antibody 03-018; assay type: binding; set-up: Binding of antibody 03-018 to linear peptides of the N protein of SARS-CoV Urbani / Binding of antibody 03-018 to looped/cyclic peptides of the N protein of SARS-CoV Urbani: unit not given here
[4] = system: rabbit serum obtained by immunizing a rabbit with the SARS-CoV strain Frankfurt 1; assay type: binding; set-up: Binding of a rabbit serum to linear peptides / Binding of a rabbit serum to looped peptides / Rabbit serum linear peptides / Rabbit serum looped peptides / Binding of a rabbit serum to linear peptides of protein N of SARS-CoV Urbani (Rabbit serum linear peptides) / Binding of a rabbit serum to looped/cyclic peptides of protein N of SARS-CoV Urbani (Rabbit serum looped peptides): unit not given here

Sequence	Binding of serum 1a to linear peptides of protein N of SARS-CoV Urbani [1]	Binding of serum 1a to looped/cyclic peptides of protein N of SARS-CoV Urbani [1]	Binding of serum 1b to linear peptides of protein N of SARS-CoV Urbani [1]	Binding of serum 1b to looped/cyclic peptides of protein N of SARS-CoV Urbani [1]	Binding of serum 2 to linear peptides of protein N of SARS-CoV Urbani [1]	Binding of serum 2 to looped/cyclic peptides of protein N of SARS-CoV Urbani [1]	Binding of serum 6 to linear peptides of protein N of SARS-CoV Urbani [1]	Binding of serum 6 to looped/cyclic peptides of protein N of SARS-CoV Urbani [1]	Binding of serum 37 to linear peptides of protein N of SARS-CoV Urbani [1]	Binding of serum 37 to looped/cyclic peptides of protein N of SARS-CoV Urbani [1]	Binding of serum 62 to linear peptides of protein N of SARS-CoV Urbani [1]	Binding of serum 62 to looped/cyclic peptides of protein N of SARS-CoV Urbani [1]	Binding of serum London to linear peptides of protein N of SARS-CoV Urbani [1]	Binding of serum London to looped/cyclic peptides of protein N of SARS-CoV Urbani [1]	Binding of serum SARS-green to looped/cyclic peptides of protein N of SARS-CoV Urbani [1]	Binding of serum SARS-yellow to looped/cyclic peptides of protein N of SARS-CoV Urbani [1]	Binding of antibody 03-018 to linear peptides of the N protein of SARS-CoV Urbani [3]	Binding of antibody 03-018 to looped/cyclic peptides of the N protein of SARS-CoV Urbani [3]	Binding of a rabbit serum to linear peptides of protein N of SARS-CoV Urbani (Rabbit serum linear peptides) [4]	Binding of a rabbit serum to looped/cyclic peptides of protein N of SARS-CoV Urbani (Rabbit serum looped peptides) [4]	other results
TFGGPTDSTDNNQNG	0.3	0.3	0.1	0.2	0.2	0.3	0.2	0.2	0.8	0.4	0.6	0.3	0.6	0.3	0.5	0.1	0.1	0.2	0.1	0.1	Binding of serum SARS-green to linear peptides of protein N of SARS-CoV Urbani [1]: 0.5; Binding of serum SARS-yellow to linear peptides of protein N of SARS-CoV Urbani [1]: 0.5; Binding of Control Serum Blood-Bank to Looped peptides [2]: 0.5; Binding of Control serum Blood-bank to linear peptides [2]: 0.8; Binding of Control serum LUMC to linear peptides [2]: 0.7; Binding of Control serum LUMC to looped peptides [2]: 0.5
TFPPTEPKKDKKKKT	0.2	0.2	0.1	0.1	0.9	0.3	0.3	0.1	0.8	0.4	0.8	0.4	0.5	0.3	0.1	0.3	0.1	0.2	0.2	0.3	Binding of serum SARS-green to linear peptides of protein N of SARS-CoV Urbani [1]: 0.3; Binding of serum SARS-yellow to linear peptides of protein N of SARS-CoV Urbani [1]: 0.9; Control Serum Blood-Bank Looped peptides [2]: 0.5; Control serum Blood-bank linear peptides [2]: 0.6; Control serum LUMC linear peptides [2]: 0.7; Control serum LUMC looped peptides [2]: 0.4
TKKSAAEASKKPRQK	–	0.2	–	0.1	–	0.2	–	0.1	–	0.4	–	0.3	–	0.3	0.0	0.2	0.1	0.2	0.1	0.2	Recognition of the peptide by sera of SARS-CoV infected individuals, and form (linear, looped/cyclic) in which it is recognized [1]: recognized in linear form; Binding of Control Serum Blood-Bank to Looped peptides [2]: 0.4; Binding of Control serum Blood-bank to linear peptides [2]: 0.8; Binding of Control serum LUMC to linear peptides [2]: 0.9; Binding of Control serum LUMC to looped peptides [2]: 0.4
TNSGPDDQIGYYRRA	0.3	0.5	0.2	0.4	0.2	0.5	0.2	0.3	0.7	0.9	0.7	0.8	0.5	0.6	0.6	0.7	0.1	0.2	0.2	0.5	Binding of serum SARS-green to linear peptides of protein N of SARS-CoV Urbani [1]: 0.4; Binding of serum SARS-yellow to linear peptides of protein N of SARS-CoV Urbani [1]: 0.6; Binding of Control Serum Blood-Bank to Looped peptides [2]: 0.7; Binding of Control serum Blood-bank to linear peptides [2]: 1.2; Binding of Control serum LUMC to linear peptides [2]: 0.9; Binding of Control serum LUMC to looped peptides [2]: 0.9
TPKDHIGTRNPNNNA	0.3	0.3	0.1	0.3	0.3	0.3	0.2	0.2	0.9	0.5	0.8	0.3	0.5	0.3	0.3	0.3	0.1	0.2	0.1	0.4	Binding of serum SARS-green to linear peptides of protein N of SARS-CoV Urbani [1]: 0.4; Binding of serum SARS-yellow to linear peptides of protein N of SARS-CoV Urbani [1]: 0.7; Binding of Control Serum Blood-Bank to Looped peptides [2]: 0.5; Binding of Control serum Blood-bank to linear peptides [2]: 0.9; Binding of Control serum LUMC to linear peptides [2]: 0.9; Binding of Control serum LUMC to looped peptides [2]: 0.6
